pIC50: −log10 of the molar value.
How the values were obtained:
[1] = AUC in CD-1 mouse at 10 mg/kg, po; type: ADME, organism-based; settings: in vivo
[2] = biological target: ATP-dependent translocase ABCB1 (Homo sapiens, UniProt P08183); experiment: Inhibition of MDR1 (unknown origin); type: ADME
[3] = Drug uptake in tumor of nude mouse xenografted with human MCF7 cells at 75 mg/kg, po qd for 5 days measured at 1 hr post last dose; type: ADME, organism-based, Neoplasm; settings: in vivo
[4] = biological target: T1, Lysine-specific demethylase 3A (Homo sapiens, UniProt Q9Y4C1); experiment: Inhibition of KDM3A (unknown origin)
T1 sequence (Q9Y4C1 whole entry): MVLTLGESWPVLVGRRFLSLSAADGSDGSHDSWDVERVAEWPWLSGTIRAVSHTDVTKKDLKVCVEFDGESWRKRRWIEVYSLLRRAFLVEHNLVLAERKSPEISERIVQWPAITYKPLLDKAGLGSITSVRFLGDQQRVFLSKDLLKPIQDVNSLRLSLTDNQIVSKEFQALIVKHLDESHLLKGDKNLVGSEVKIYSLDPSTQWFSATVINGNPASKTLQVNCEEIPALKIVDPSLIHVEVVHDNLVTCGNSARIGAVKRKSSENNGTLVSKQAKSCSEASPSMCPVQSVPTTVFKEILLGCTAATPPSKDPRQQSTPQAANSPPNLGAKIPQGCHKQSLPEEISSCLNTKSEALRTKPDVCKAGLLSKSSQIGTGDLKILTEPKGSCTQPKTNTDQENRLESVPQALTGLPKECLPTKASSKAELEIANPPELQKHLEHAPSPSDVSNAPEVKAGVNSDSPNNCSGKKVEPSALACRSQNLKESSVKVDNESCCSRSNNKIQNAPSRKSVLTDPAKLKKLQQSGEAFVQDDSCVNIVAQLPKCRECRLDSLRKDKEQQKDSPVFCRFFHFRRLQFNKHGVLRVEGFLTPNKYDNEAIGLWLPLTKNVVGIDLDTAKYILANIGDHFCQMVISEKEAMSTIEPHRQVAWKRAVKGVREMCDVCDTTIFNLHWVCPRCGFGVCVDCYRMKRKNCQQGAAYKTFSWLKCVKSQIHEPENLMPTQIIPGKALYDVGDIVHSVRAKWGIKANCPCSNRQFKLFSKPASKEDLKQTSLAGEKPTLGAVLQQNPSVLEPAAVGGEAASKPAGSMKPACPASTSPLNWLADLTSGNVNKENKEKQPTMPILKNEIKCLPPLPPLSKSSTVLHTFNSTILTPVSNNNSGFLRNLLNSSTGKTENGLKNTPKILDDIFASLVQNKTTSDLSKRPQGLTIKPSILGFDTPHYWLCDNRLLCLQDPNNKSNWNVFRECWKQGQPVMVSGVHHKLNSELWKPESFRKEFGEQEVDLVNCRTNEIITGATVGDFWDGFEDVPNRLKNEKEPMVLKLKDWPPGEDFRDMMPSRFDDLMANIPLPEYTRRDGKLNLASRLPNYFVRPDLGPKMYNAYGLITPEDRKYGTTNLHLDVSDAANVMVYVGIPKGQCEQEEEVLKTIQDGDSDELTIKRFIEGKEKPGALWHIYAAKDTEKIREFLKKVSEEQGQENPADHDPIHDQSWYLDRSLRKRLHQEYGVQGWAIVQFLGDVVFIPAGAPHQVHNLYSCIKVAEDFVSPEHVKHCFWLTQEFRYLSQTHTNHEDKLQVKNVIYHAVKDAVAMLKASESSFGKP

[5] = Volume of distribution in CD-1 mouse at 5 mg/kg, iv; type: ADME, organism-based; settings: in vivo
[6] = Clearance in CD-1 mouse at 5 mg/kg, iv; type: ADME, organism-based; settings: in vivo
[7] = biological target: T2, Lysine-specific demethylase 4A (Homo sapiens, UniProt O75164); experiment: Inhibition of KDM4A (unknown origin)
T2 sequence (O75164 whole entry): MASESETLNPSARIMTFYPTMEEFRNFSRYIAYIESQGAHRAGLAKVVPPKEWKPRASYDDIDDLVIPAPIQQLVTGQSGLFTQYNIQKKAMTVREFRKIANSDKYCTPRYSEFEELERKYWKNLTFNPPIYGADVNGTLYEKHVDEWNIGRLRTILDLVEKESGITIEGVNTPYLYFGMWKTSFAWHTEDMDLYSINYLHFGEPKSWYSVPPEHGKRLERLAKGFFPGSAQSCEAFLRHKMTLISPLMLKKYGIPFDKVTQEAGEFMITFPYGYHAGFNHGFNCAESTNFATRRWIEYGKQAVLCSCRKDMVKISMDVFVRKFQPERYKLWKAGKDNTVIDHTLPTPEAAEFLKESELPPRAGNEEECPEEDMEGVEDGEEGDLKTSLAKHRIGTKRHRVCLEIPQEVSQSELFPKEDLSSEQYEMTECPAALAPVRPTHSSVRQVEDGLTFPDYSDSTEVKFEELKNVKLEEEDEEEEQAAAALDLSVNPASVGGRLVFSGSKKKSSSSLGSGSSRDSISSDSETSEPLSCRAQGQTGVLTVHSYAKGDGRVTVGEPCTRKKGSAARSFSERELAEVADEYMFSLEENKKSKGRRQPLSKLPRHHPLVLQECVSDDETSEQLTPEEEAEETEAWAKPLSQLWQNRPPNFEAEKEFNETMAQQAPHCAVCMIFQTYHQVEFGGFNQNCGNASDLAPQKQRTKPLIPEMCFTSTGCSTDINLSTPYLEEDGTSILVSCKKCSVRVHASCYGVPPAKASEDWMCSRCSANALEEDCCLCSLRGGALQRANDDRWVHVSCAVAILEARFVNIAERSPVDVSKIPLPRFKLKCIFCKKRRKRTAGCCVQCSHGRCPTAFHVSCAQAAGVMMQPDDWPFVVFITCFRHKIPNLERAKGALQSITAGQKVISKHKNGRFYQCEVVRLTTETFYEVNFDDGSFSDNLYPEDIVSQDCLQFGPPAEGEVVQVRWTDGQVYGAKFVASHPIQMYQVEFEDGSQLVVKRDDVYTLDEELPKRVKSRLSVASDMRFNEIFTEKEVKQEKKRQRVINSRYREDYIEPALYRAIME

[8] = biological target: Lysine-specific demethylase 5B (Homo sapiens, UniProt Q9UGL1); experiment: Inhibition of KDM5B (unknown origin) preincubated with enzyme
Sequence of Lysine-specific demethylase 5B (Q9UGL1 whole entry): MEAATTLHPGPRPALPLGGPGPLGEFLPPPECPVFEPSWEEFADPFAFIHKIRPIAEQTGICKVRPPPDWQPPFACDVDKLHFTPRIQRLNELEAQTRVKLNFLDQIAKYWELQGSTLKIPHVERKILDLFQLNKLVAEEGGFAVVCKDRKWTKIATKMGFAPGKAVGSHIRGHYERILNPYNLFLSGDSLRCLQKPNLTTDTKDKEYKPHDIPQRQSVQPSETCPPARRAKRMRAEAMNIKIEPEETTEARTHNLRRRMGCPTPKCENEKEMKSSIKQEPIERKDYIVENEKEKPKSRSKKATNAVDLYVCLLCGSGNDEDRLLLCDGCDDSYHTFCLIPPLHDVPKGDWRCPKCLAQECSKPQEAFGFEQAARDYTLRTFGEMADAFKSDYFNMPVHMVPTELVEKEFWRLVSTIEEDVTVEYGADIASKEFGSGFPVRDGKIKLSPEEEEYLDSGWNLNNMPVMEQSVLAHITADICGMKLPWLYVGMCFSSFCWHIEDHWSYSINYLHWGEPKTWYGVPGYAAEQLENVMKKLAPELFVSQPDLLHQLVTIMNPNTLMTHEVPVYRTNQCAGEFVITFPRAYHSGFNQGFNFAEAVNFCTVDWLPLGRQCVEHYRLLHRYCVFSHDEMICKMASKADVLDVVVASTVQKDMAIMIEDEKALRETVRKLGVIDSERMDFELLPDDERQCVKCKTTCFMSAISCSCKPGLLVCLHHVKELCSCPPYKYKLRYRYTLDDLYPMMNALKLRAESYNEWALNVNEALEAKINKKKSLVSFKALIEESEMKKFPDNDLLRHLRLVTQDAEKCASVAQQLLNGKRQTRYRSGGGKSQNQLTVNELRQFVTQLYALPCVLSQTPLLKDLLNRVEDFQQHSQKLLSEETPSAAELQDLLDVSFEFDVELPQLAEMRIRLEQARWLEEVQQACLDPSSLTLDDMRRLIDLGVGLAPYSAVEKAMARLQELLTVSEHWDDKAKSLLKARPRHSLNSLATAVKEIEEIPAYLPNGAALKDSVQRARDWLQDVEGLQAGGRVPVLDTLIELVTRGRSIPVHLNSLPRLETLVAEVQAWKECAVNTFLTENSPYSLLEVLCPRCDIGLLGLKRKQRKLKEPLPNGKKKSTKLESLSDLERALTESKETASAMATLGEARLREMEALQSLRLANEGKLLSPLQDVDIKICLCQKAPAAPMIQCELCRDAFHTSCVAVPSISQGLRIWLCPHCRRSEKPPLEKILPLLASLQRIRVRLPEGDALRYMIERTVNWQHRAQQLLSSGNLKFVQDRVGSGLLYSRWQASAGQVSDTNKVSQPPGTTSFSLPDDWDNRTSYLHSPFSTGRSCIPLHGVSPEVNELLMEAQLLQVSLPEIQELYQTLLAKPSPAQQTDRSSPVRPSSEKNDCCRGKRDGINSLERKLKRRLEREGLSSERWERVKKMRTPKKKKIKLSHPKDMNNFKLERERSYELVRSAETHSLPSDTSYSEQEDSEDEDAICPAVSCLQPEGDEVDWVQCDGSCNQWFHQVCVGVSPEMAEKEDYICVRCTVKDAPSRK

Sequence of ATP-dependent translocase ABCB1 (P08183 whole entry): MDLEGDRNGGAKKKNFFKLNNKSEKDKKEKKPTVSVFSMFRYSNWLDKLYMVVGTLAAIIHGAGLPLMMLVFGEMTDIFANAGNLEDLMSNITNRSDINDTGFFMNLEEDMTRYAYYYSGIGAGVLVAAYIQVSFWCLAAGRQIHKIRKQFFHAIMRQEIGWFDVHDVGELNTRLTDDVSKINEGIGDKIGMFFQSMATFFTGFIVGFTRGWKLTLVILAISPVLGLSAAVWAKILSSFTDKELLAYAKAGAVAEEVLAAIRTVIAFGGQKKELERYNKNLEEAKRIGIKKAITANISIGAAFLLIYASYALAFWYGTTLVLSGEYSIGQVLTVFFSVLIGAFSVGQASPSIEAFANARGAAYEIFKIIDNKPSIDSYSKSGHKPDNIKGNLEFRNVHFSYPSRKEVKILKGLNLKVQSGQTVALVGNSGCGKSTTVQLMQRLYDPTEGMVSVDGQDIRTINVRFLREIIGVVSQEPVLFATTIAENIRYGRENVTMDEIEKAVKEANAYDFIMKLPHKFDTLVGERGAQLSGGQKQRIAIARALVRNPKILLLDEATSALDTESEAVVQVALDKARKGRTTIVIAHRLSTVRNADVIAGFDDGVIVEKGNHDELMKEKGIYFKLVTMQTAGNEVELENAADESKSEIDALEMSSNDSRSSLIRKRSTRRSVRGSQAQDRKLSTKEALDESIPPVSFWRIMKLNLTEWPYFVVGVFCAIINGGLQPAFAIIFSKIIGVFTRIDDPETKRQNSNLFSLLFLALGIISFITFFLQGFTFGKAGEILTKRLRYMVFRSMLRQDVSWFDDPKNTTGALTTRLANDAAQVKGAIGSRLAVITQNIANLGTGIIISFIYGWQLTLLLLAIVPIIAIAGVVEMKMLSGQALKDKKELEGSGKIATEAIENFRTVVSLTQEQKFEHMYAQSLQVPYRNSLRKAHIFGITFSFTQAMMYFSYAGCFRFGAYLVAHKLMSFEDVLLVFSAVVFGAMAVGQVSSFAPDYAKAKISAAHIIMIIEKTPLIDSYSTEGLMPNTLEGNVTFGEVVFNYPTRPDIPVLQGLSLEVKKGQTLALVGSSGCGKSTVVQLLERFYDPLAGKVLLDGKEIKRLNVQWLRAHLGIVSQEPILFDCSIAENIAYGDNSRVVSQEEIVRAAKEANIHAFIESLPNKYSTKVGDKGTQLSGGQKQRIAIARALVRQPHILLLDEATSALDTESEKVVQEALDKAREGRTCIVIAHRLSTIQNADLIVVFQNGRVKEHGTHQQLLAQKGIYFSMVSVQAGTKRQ

Cc1cc(Cl)ccc1COc1ccnn1-c1cc(C(=O)O)ccn1
AUC [1]: 44000 ng·h/mL | inhibition (INH) [2]: Not Active | Drug uptake [3]: Active | pIC50 [4]: 5.64 | Vd [5]: 0.16 L/kg | clearance [6]: 2.1 mL/min/kg | pIC50 [7]: 7.00 | pIC50 [8]: 8.70
